One series has as its target T1, Bile acid receptor (Homo sapiens, UniProt Q96RI1).
T1 sequence (Q96RI1 whole entry): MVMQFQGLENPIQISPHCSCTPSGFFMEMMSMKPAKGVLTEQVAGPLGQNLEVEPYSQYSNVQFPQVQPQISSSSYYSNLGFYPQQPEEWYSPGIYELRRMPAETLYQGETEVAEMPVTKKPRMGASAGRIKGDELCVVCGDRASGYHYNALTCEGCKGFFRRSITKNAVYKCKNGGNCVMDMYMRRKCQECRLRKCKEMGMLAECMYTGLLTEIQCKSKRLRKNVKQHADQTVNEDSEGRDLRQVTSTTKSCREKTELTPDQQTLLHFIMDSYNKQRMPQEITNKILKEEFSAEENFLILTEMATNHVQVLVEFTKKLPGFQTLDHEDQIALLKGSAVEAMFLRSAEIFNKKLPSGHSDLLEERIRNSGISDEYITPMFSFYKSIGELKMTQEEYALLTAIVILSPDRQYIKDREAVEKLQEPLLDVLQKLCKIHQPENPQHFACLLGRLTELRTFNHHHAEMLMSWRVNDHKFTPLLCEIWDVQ
In words: Antagonist activity at FXR (unknown origin) expressed in HEK293T cells cotransfected with pCMV-Script-hFXR/pGL4.11-hSHP-Luciferase incubated for 24 hrs in presence of GW4064 by Steady-glo luciferase assay. The format is cell-based.

The nature of series [1]: Cytotoxicity against HEK293T cells cotransfected with pCMV-Script-hFXR/pGL4.11-hSHP-Luciferase incubated for 24 hrs in presence of GW4064 by celltiter-blue cell viability assay. The note with it: human. The series is classed as toxicity, cell-based, HEK-293T. For orientation: Alamar Blue is a resazurin reagent that responds to reducing activity.
Series [2] deals with T2, G-protein coupled bile acid receptor 1 (Homo sapiens, UniProt Q8TDU6).
T2 sequence (Q8TDU6 whole entry): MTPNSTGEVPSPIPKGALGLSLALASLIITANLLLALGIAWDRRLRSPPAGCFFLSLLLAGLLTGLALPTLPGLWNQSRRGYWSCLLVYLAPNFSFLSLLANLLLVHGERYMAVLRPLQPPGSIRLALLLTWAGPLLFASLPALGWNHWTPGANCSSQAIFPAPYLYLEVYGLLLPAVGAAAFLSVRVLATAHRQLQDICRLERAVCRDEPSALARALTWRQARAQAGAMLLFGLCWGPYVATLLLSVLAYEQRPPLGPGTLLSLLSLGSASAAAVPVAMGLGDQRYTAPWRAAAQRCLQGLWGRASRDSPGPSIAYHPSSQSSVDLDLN
Put plainly: Agonist activity against TGR5 (unknown origin). The format is functional.

In series [3] the target is T3, Bile acid receptor (Homo sapiens) (UniProt Q96RI1).
T3 sequence (whole entry): T1 sequence (Q96RI1 whole entry)
Put plainly: Agonist activity against FXR (unknown origin) at upto 100 uM. The note with it: filed as agonist.

Series [4] concerns the target T4, Bile acid receptor (Mus musculus) (UniProt Q60641).
T4 sequence (whole entry): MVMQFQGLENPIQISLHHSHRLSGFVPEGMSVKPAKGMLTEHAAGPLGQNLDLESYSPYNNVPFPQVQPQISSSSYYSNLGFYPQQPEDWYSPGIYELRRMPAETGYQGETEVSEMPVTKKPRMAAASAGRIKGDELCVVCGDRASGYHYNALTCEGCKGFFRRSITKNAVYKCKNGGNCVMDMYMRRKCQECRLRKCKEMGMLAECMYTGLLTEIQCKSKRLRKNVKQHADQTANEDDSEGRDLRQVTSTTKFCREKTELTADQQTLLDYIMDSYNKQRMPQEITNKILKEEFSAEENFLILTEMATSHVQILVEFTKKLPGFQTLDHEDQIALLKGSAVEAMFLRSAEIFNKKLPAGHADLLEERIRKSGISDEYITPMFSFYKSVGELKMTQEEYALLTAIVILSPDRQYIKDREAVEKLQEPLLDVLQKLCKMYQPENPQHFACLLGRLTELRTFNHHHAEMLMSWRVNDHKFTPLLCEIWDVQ
In words: In vivo antagonist activity against FXR in microbeta depleted mouse assessed as reduction in taurocholic acid induced Shp mRNA expression in ileum at 10 mg/kg, po incubated for 2 to 48 hrs. Conditions: time 2-48 hrs. The format is functional, organism-based.

The target in series [5] is T4, Bile acid receptor (Mus musculus). In words: In vivo antagonist activity against FXR in microbeta depleted mouse assessed as reduction in taurocholic acid induced Fgf15 mRNA expression in ileum at 10 mg/kg, po incubated for 2 to 48 hrs. The format is functional, organism-based. The note with it: time 2-48 hrs.
Series [6] has the same target. In words: In vivo antagonist activity against FXR in microbeta depleted mouse assessed as reduction in taurocholic acid induced FXR mRNA expression in hepatic signaling at 10 mg/kg, po incubated for 2 to 48 hrs. The series is classed as functional, organism-based. The note with it: time 2-48 hrs.
Series [7] has as its system Mus musculus. Put plainly: Anti-NASH activity in GAN diet-induced […] mouse assessed as reduction of dihydroceramide level in serum administered orally for 12 weeks. Conditions: route po. The series is classed as functional, organism-based.
In series [8] the test system is Mus musculus. In words: Anti-NASH activity in GAN diet-induced […] mouse assessed as reduction of glycosyl-ceramide level in serum administered orally for 12 weeks. The format is functional, organism-based. The note with it: route po.
The subject of series [9] is Mus musculus. In words: Anti-NASH activity in GAN diet-induced […] mouse assessed as reduction of sphinogo-myelin level in serum administered orally for 12 weeks. The series is classed as functional, organism-based. The note with it: route po.
The subject of series [10] is Mus musculus. In words: Anti-NASH activity in GAN diet-induced […] mouse assessed as reduction of ceramide level in serum administered orally for 12 weeks. The format is functional, organism-based. Conditions: route po.
The species entered for series [11] is Mus musculus. In words: Anti-NASH activity in GAN diet-induced […] mouse assessed as increase in hepatic bile acid synthesis. The format is functional, organism-based.
For series [12], the species on record is Mus musculus. Put plainly: Anti-NASH activity in GAN diet-induced […] mouse assessed as reduction of bile acid pool size in ileum. The series is classed as functional, organism-based.
Series [13] is filed under the species Mus musculus. In words: Anti-NASH activity in GAN diet-induced […] mouse assessed as reduction in bile acid loss in cecum content. The format is functional, organism-based.
Series [14] is filed under the species Mus musculus. In words: Anti-NASH activity in GAN diet-induced […] mouse assessed as bile acid level in serum. The format is functional, organism-based.
The species named for series [15] is Mus musculus. Put plainly: Anti-NASH activity in GAN diet-induced […] mouse assessed as bile acid level in gall bladder. The format is functional, organism-based.

Calls of active or inactive are those of the source. The calls are words filed in the database; no cut-off is given here.

A word on the IC50: it is the concentration that gives 50% inhibition. Broadly, the EC50 is the concentration needed to bring the measured effect to its halfway point. Low readings indicate an effect from little substance, high ones a need for much substance. On to `CC(C)[C@@H]1CC[C@]2(C(=O)NCC(=O)O)CC[C@]3(C)[C@H](CC[C@@H]4[C@@]5(C)CC[C@@H](O)C(C)(C)[C@@H]5CC[C@]43C)[C@@H]12`, for which the 50% inhibitory concentration (IC50) at Bile acid receptor worked out at 74 µM. Moreover, the IC50 at 24 h in series [1] is above 100 µM. In series [2], this molecule displayed an EC50 above 100 µM. In addition, in series [3], the result was Active.

As for `C[C@H](CCC(=O)NCC(=O)O)[C@H]1CC[C@H]2[C@@H]3[C@@H](O)C[C@@H]4C[C@H](O)CC[C@]4(C)[C@H]3CC[C@]12C` [GLYCOURSODEOXYCHOLIC ACID], the IC50 at 24 h in series [1] is above 100 µM. The result (in series [4]; in [5]; in series [6]; in the series on Mus musculus [7]; in the series on Mus musculus [8]; in the series with Mus musculus [9]) was Active. Also, the outcome with Mus musculus [10], in the series filed under Mus musculus [11], in the series filed under Mus musculus [12], in the series listed under Mus musculus [13], in the series filed under Mus musculus [14] and in the series filed under Mus musculus [15] was Active.

Values taken from ChEMBL document CHEMBL5096210, “Discovery of Betulinic Acid Derivatives as Potent Intestinal Farnesoid X Receptor Antagonists to Ameliorate Nonalcoholic Steatohepatitis” (J Med Chem, 2022).
